Our source for the IC50 values is publication PMC4433804 (Nature chemical biology, 2015).

Each structure is given as a SMILES string.

The test addresses RPE65 (bovine RPE microsomes as the enzyme source) (Bos taurus, UniProt Q28175). The experiment in a line: in vitro retinoid isomerase activity assay. The class given is biochemical.

Sequence of UniProt Q28175 (Q28175 whole entry): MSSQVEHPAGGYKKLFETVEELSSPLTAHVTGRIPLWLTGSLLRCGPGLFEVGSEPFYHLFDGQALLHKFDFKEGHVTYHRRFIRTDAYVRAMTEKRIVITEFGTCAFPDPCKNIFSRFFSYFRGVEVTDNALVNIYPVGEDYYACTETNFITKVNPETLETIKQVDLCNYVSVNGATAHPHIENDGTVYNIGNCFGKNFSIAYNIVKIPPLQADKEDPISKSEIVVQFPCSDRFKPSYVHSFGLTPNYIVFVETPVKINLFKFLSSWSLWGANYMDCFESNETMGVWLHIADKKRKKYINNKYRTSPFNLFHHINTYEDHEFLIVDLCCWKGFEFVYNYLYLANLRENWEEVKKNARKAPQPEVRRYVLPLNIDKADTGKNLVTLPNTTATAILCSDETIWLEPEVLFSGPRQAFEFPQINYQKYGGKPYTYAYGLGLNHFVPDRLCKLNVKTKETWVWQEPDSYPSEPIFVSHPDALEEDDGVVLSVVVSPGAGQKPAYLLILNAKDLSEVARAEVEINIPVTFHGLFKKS

A word on the IC50: it is the concentration at which inhibition is half-maximal. A higher IC50 goes with weaker potency in that assay. Turning to `CC1=C(COc2cccc([C@H](O)CCN)c2)C(C)(C)CCC1` [MB-001, (R)-3-amino-1-(3-((2,6,6-trimethylcyclohex-1-en-1-yl)methoxy)phenyl)propan-1-ol], the IC50 is 396 ± 58 nM.
